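Growth conditions: 96-well plates. Treatment: test compound, 48 hours, 5 concentrations. Analysis: linear interpolation between bracketing concentrations; unreached endpoints set to highest concentration. The concentration for 50% growth inhibition is given as GI50.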 Active and inactive are the calls of the source. Rule as the data show it: active = GI50 up to about 1.1 µM and inactive = higher.
Columns and labels:
Experiment in all cases: DTP human tumour cell line panel, 48 h
NCI-H460 = system: NCI-H460
SF-268 = system: SF-268
NCI-H522 = system: NCI-H522
BT-549 = system: BT-549
SK-MEL-5 = system: SK-MEL-5
RPMI-8226 = system: RPMI-8226
LOX IMVI = system: LOX IMVI
SK-MEL-28 = system: SK-MEL-28
IGROV-1 = system: IGROV-1
CAKI-1 = system: CAKI-1
UO-31 = system: UO-31
Hs-578T = system: Hs-578T
786-0 = system: 786-0
SK-MEL-2 = system: SK-MEL-2
A549 = system: A549
UACC-62 = system: UACC-62
OVCAR-8 = system: OVCAR-8
U-251 = system: U-251
OVCAR-3 = system: OVCAR-3
MCF7 = system: MCF7
TK-10 = system: TK-10
MDA-N = system: MDA-N
SF-295 = system: SF-295
SR = system: SR
DU-145 = system: DU-145
SNB-19 = system: SNB-19
EKVX = system: EKVX
HOP-92 = system: HOP-92
NCI/ADR-RES = system: NCI/ADR-RES
MDA-MB-435 = system: MDA-MB-435
MOLT-4 = system: MOLT-4
SW-620 = system: SW-620
KM12 = system: KM12
SK-OV-3 = system: SK-OV-3
HT-29 = system: HT-29
OVCAR-5 = system: OVCAR-5
CCRF-CEM = system: CCRF-CEM
NCI-H226 = system: NCI-H226
OVCAR-4 = system: OVCAR-4
SN12C = system: SN12C
COLO 205 = system: COLO 205
MDA-MB-231 = system: MDA-MB-231
HL-60 = system: HL-60
A498 = system: A498
HCT-116 = system: HCT-116
UACC-257 = system: UACC-257
NCI-H23 = system: NCI-H23
HCT-15 = system: HCT-15
PC-3 = system: PC-3
K562 = system: K562
ACHN = system: ACHN
HCC 2998 = system: HCC 2998
SF-539 = system: SF-539
M14 = system: M14
RXF 393 = system: RXF 393
Malme-3M = system: Malme-3M
HOP-62 = system: HOP-62
T47D = system: T47D
SNB-75 = system: SNB-75

In the case of `COc1cc(C2S/C(=C/c3ccccc3)C(=O)N2c2cccc(Cl)c2)cc(OC)c1OC` (centres undefined), the GI50 (NCI-H460) is reported as 34.4 µM (inactive), the GI50 (SF-268) is reported as 77.1 µM (inactive) and the GI50 (NCI-H522) is reported as 18.2 µM (inactive). For the same compound, the GI50 (BT-549) was 28.6 µM (inactive), the GI50 (SK-MEL-5) was 35.7 µM (inactive) and the GI50 (RPMI-8226) was 24.8 µM (inactive). For the same compound, the GI50 (LOX IMVI) was 21.1 µM (inactive), the GI50 (SK-MEL-28) was 78.3 µM (inactive) and the GI50 (IGROV-1) was 56.9 µM (inactive). The GI50 (CAKI-1) was 30.8 µM (inactive), the GI50 (UO-31) was 23.7 µM (inactive) and the GI50 (Hs-578T) was 86.7 µM (inactive). For the same compound, the GI50 (786-0) was 33.3 µM (inactive), the GI50 (SK-MEL-2) was 62.7 µM (inactive) and the GI50 (A549) was 78.3 µM (inactive). For the same compound, the GI50 (UACC-62) was 9.4 µM (inactive), the GI50 (OVCAR-8) was 57.8 µM (inactive) and the GI50 (U-251) was 57.7 µM (inactive). The GI50 (OVCAR-3) was 30.1 µM (inactive), the GI50 (MCF7) was 34 µM (inactive) and the GI50 (TK-10) was > 100 µM (inactive). For the same compound, the GI50 (MDA-N) was 30.2 µM (inactive), the GI50 (SF-295) was 33.7 µM (inactive) and the GI50 (SR) was 19.4 µM (inactive). The GI50 (DU-145) was 23.1 µM (inactive), the GI50 (SNB-19) was 42.9 µM (inactive) and the GI50 (EKVX) was 37.2 µM (inactive). The GI50 (HOP-92) was 96.4 µM (inactive), the GI50 (NCI/ADR-RES) was 34.5 µM (inactive) and the GI50 (MDA-MB-435) was 22.2 µM (inactive). The GI50 (MOLT-4) was 22 µM (inactive), the GI50 (SW-620) was 46 µM (inactive) and the GI50 (KM12) was 27.4 µM (inactive). For the same compound, the GI50 (SK-OV-3) was > 100 µM (inactive), the GI50 (HT-29) was 44.9 µM (inactive) and the GI50 (OVCAR-5) was > 100 µM (inactive). The GI50 (CCRF-CEM) was 25.6 µM (inactive), the GI50 (NCI-H226) was 93.5 µM (inactive) and the GI50 (OVCAR-4) was 29.8 µM (inactive). For the same compound, the GI50 (SN12C) was 55.2 µM (inactive), the GI50 (COLO 205) was > 100 µM (inactive) and the GI50 (MDA-MB-231) was > 100 µM (inactive). The GI50 (HL-60) was 30.9 µM (inactive), the GI50 (A498) was 69.7 µM (inactive) and the GI50 (HCT-116) was 36.3 µM (inactive). The GI50 (UACC-257) was 23.6 µM (inactive), the GI50 (NCI-H23) was 94.4 µM (inactive) and the GI50 (HCT-15) was 34.8 µM. The GI50 (PC-3) was 51.8 µM (inactive), the GI50 (K562) was 21.1 µM (inactive) and the GI50 (ACHN) was 30.6 µM (inactive). For the same compound, the GI50 (HCC 2998) was 46.1 µM (inactive), the GI50 (SF-539) was 31 µM (inactive) and the GI50 (M14) was 62.8 µM (inactive).
`COC(=O)C(=O)C(C(=O)C(=O)Nc1ccccc1C(C)=O)c1nc2ccc(C(=O)c3ccccc3)cc2nc1O` (centres undefined) was tested, and the GI50 (NCI-H460) was 58.9 µM (inactive), the GI50 (SF-268) was 68.2 µM (inactive) and the GI50 (NCI-H522) was 28.4 µM (inactive). For the same compound, the GI50 (BT-549) was > 100 µM (inactive), the GI50 (SK-MEL-5) was 62.8 µM (inactive) and the GI50 (RPMI-8226) was 63.1 µM (inactive). The GI50 (LOX IMVI) was > 100 µM (inactive), the GI50 (IGROV-1) was 20.2 µM (inactive) and the GI50 (CAKI-1) was 25.9 µM (inactive). The GI50 (UO-31) was 26.7 µM (inactive), the GI50 (Hs-578T) was 47.2 µM (inactive) and the GI50 (786-0) was > 100 µM (inactive). For the same compound, the GI50 (SK-MEL-2) was > 100 µM (inactive), the GI50 (A549) was > 100 µM (inactive) and the GI50 (UACC-62) was > 100 µM (inactive). The GI50 (OVCAR-8) was 39.6 µM (inactive), the GI50 (RXF 393) was 51.5 µM (inactive) and the GI50 (OVCAR-3) was 73.6 µM (inactive). For the same compound, the GI50 (MCF7) was 19.4 µM (inactive), the GI50 (TK-10) was > 100 µM (inactive) and the GI50 (MDA-N) was 40.2 µM (inactive). The GI50 (Malme-3M) was > 100 µM (inactive), the GI50 (SF-295) was 45.1 µM (inactive) and the GI50 (SR) was 3.77 µM (inactive). The GI50 (SNB-19) was 52 µM (inactive), the GI50 (EKVX) was 92.5 µM (inactive) and the GI50 (HOP-92) was 75 µM (inactive). For the same compound, the GI50 (NCI/ADR-RES) was 30.6 µM (inactive), the GI50 (MOLT-4) was 56.2 µM (inactive) and the GI50 (HOP-62) was 45.2 µM (inactive). For the same compound, the GI50 (KM12) was 27 µM (inactive), the GI50 (T47D) was 56.4 µM (inactive) and the GI50 (SK-OV-3) was > 100 µM (inactive). For the same compound, the GI50 (HT-29) was 77.8 µM (inactive), the GI50 (OVCAR-5) was > 100 µM (inactive) and the GI50 (NCI-H226) was 98.2 µM (inactive). For the same compound, the GI50 (OVCAR-4) was > 100 µM (inactive), the GI50 (SN12C) was > 100 µM (inactive) and the GI50 (SNB-75) was 32.7 µM (inactive). For the same compound, the GI50 (MDA-MB-231) was 78 µM (inactive), the GI50 (HL-60) was > 100 µM (inactive) and the GI50 (A498) was > 100 µM (inactive). For the same compound, the GI50 (HCT-116) was > 100 µM (inactive), the GI50 (UACC-257) was > 100 µM (inactive) and the GI50 (NCI-H23) was 35.2 µM (inactive). For the same compound, the GI50 (HCT-15) was 74 µM, the GI50 (PC-3) was 44 µM (inactive) and the GI50 (K562) was 39.4 µM (inactive). The GI50 (ACHN) was 73.8 µM (inactive), the GI50 (HCC 2998) was 78.3 µM (inactive) and the GI50 (SF-539) was 76.7 µM (inactive). The GI50 (M14) was > 100 µM (inactive).
For `CC(C)/C(Cl)=N\OC(=O)Nc1cccc(F)c1`, the GI50 (NCI-H460) was 27.4 µM (inactive), the GI50 (SF-268) was 19.6 µM (inactive) and the GI50 (NCI-H522) was 1.49 µM (inactive). The GI50 (BT-549) was 2.66 µM (inactive), the GI50 (SK-MEL-5) was 15 µM (inactive) and the GI50 (RPMI-8226) was 4.34 µM (inactive). For the same compound, the GI50 (LOX IMVI) was 2.14 µM (inactive), the GI50 (SK-MEL-28) was 16.2 µM (inactive) and the GI50 (IGROV-1) was 18.6 µM (inactive). The GI50 (CAKI-1) was 16 µM (inactive), the GI50 (UO-31) was 18.6 µM (inactive) and the GI50 (Hs-578T) was 26.5 µM (inactive). For the same compound, the GI50 (786-0) was 16 µM (inactive), the GI50 (SK-MEL-2) was 7.76 µM (inactive) and the GI50 (A549) was 17.5 µM (inactive). The GI50 (UACC-62) was 20.4 µM (inactive), the GI50 (OVCAR-8) was 17 µM (inactive) and the GI50 (U-251) was 17.2 µM (inactive). For the same compound, the GI50 (RXF 393) was 17.1 µM (inactive), the GI50 (OVCAR-3) was 17 µM (inactive) and the GI50 (MCF7) was 11 µM (inactive). For the same compound, the GI50 (TK-10) was 14.8 µM (inactive), the GI50 (MDA-N) was 15.4 µM (inactive) and the GI50 (Malme-3M) was 6.24 µM (inactive). For the same compound, the GI50 (SF-295) was 32.9 µM (inactive), the GI50 (SR) was 2.35 µM (inactive) and the GI50 (DU-145) was 18.4 µM (inactive). The GI50 (SNB-19) was > 100 µM (inactive), the GI50 (EKVX) was 16.7 µM (inactive) and the GI50 (HOP-92) was 1.46 µM (inactive). For the same compound, the GI50 (NCI/ADR-RES) was 17.1 µM (inactive), the GI50 (MOLT-4) was 2.28 µM (inactive) and the GI50 (SW-620) was 2.23 µM (inactive). The GI50 (HOP-62) was > 31.6 µM (inactive), the GI50 (KM12) was 12.1 µM (inactive) and the GI50 (T47D) was 24.8 µM (inactive). The GI50 (SK-OV-3) was 19.7 µM (inactive), the GI50 (HT-29) was 18.3 µM (inactive) and the GI50 (OVCAR-5) was 17.7 µM (inactive). For the same compound, the GI50 (CCRF-CEM) was 1.9 µM (inactive), the GI50 (NCI-H226) was 17.2 µM (inactive) and the GI50 (OVCAR-4) was 11.7 µM (inactive). For the same compound, the GI50 (SN12C) was 16.5 µM (inactive), the GI50 (COLO 205) was 2.44 µM (inactive) and the GI50 (SNB-75) was 22.6 µM (inactive). The GI50 (MDA-MB-231) was 16.9 µM (inactive), the GI50 (HL-60) was 1.96 µM (inactive) and the GI50 (A498) was 12.9 µM (inactive). The GI50 (HCT-116) was 16.1 µM (inactive), the GI50 (UACC-257) was 15.8 µM (inactive) and the GI50 (NCI-H23) was 15.9 µM (inactive). For the same compound, the GI50 (HCT-15) was 15.8 µM, the GI50 (PC-3) was 16.4 µM (inactive) and the GI50 (K562) was 2.19 µM (inactive). For the same compound, the GI50 (ACHN) was 14.6 µM (inactive), the GI50 (HCC 2998) was 19.3 µM (inactive) and the GI50 (SF-539) was 18.6 µM (inactive). The GI50 (M14) was 0.933 µM (active).
